According to patent publication US20260071117A1, “FUNABLE FLUORESCENT COMPOUNDS AND USES THEREOF” (Arizona Board of Regents on Behalf of the University of …, priority 2021, published 2026):

Test: Absorbance and fluorescence measurements (excitation maximum, emission maximum, quantum yield vs coumarin 151)
Format: physicochemical
Set-up: key to Quantum Yield: fraction relative to coumarin 151 in ethanol standard
Conditions: for λex: absorbance/excitation maximum; for λem: emission maximum
Text: All reagents and solvents were acquired from commercially available suppliers and used without further purification. Methanol(dried on molecular sieves-Acroseal) was obtained from Acros. […] 1H and 13C NMR spectra were obtained on a Bruker NMR spectrometer at 500/400 and 125/100 MHz respectively. The data is reported as follows: chemical shift in ppm (δ), multiplicity (s=singlet, d=doublet, dd=doublet of doublets, t=triplet, dt=doublet of triplets, td=triplet of doublets, q=quartet, p=pentet, m=multiplet). Coupling constants are reported in Hertz (Hz) and were automatically generated using known NMR analyzer software (MestReNova), these were then subsequently curated. High-resolution mass spectra were obtained using the positive ESI method for all the compounds, obtained in an Ion Cyclotron Resonance (ICR) spectrometer. Absorbance spectra were obtained using an Agilent 8453 UV-visible spectroscopy system. Fluorescence was measured on a Varian (Agilent) Cary Eclipse Fluorimeter. Quantum yield measurements were calculated and reported using coumarin 151 in ethanol as a standard.^1 Fluorescence scans were obtained using a 2.5 mm slit width unless otherwise noted.
The fluorescence was also measured in different solvents to examine the solvent effects.

[1] = coumarin 151 in ethanol as standard, 2.5 mm slit width, measurements run with methanol
[2] = 2.5 mm slit width, measurements run with methanol

In the case of `c1ccc2cc(-c3nc4c(nc5ccccn54)c4ccc5ccccc5c34)ccc2c1` [Compound 16e, 7-(naphthalen-2-yl)benzo[h]pyrido[2′,1′:2,3]imidazo[4,5-c]isoquinoline], the λex (measurements run with methanol) is reported as 389 nm, the “Quantum Yield” value [1] is reported as 0.01 and the λem [2] is reported as 442 nm.

For `COc1cc(-c2nc3c(nc4cccnn43)c3cc(OC)c(OC)c(OC)c23)cc(OC)c1OC` [Compound 16f, 2,3,4-trimethoxy-5-(3,4,5-trimethoxyphenyl)pyridazino[6′,1′:2,3]imidazo[4,5-c]isoquinoline], the λex (measurements run with methanol) was 295 nm, the “Quantum Yield” value [1] was 0.07 and the λem [2] was 488 nm.

For `COc1cc(-c2nc3c(nc4ncccn43)c3cc(OC)c(OC)c(OC)c23)cc(OC)c1OC` [Compound 16g, 2,3,4-trimethoxy-5-(3,4,5-trimethoxyphenyl)pyrimido[2′,1′:2,3]imidazo[4,5-c]isoquinoline], the λex (measurements run with methanol) was 296 nm, the “Quantum Yield” value [1] was 0.07 and the λem [2] was 510 nm.

In the case of `COc1cc(-c2nc3c(nc4cccc(Br)n43)c3cc(OC)c(OC)c(OC)c23)cc(OC)c1OC` [Compound 16h, 8-bromo-2,3,4-trimethoxy-5-(3,4,5-trimethoxyphenyl)pyrido[2′,1′:2,3]imidazo[4,5-c]isoquinoline], the λex (measurements run with methanol) is reported as 265 nm, the “Quantum Yield” value [1] is reported as 0.002 and the λem [2] is reported as 553 nm.

For `COc1cc(OC)c2c(-c3ccccc3)nc3c(nc4ccccn43)c2c1` [Compound 18a, 2,4-dimethoxy-5-phenylpyrido[2′,1′:2,3]imidazo[4,5-c]isoquinoline], the “fluorescence (observation in words)” value was “not observable by the naked eye”, the λex (measurements run with methanol) was 365 nm and the “Quantum Yield” value [1] was 0.01. For the same compound, the λem [2] was 422 nm and the Quantum Yield (tetracyclic indolizines of Example I) was 0.01.

In the case of `COc1cc(OC)c2c(-c3ccc([N+](=O)[O-])cc3)nc3c(nc4ccccn43)c2c1` [Compound 18b, 2,4-dimethoxy-5-(4-nitrophenyl)pyrido[2′,1′:2,3]imidazo[4,5-c]isoquinoline], the “fluorescence (observation in words)” value is reported as “quenched the fluorescence fully” and the λex (measurements run with methanol) is reported as 370 nm.

In the case of `COC(=O)c1ccn2c(c1)nc1c3cc(OC)cc(OC)c3c(/C=C/c3ccccc3)nc12` [Compound 18c, methyl (E)-2,4-dimethoxy-5-styrylpyrido[2′,1′:2,3]imidazo[4,5-c]isoquinoline-10-carboxylate], the λex (measurements run with methanol) is reported as 325 nm, the “Quantum Yield” value [1] is reported as 0.19 and the λem [2] is reported as 510 nm.

With `Cc1nn2c(NC(C)(C)C)c(-c3ccccc3)nc2nc1/C=C/c1ccccc1` [Compound 42, (E)-N-(tert-butyl)-2-methyl-6-phenyl-3-styrylimidazo[1,2-b][1,2,4]triazin-7-amine] the λex (measurements run with methanol) was 453 nm, the “Quantum Yield” value [1] was 0.11 and the λem [2] was 636 nm.

In the case of `Cc1nn2c(NC(C)(C)C)c(-c3ccc4ccccc4c3)nc2nc1/C=C/c1ccc2ccccc2c1` [Compound 43, (E)-N-(tert-butyl)-2-methyl-6-(naphthalen-2-yl)-3-(2-(naphthalen-2-yl)vinyl)imidazo[1,2-b][1,2,4]triazin-7-amine], the λex (measurements run with methanol) is reported as 485 nm, the “Quantum Yield” value [1] is reported as 0.22 and the λem [2] is reported as 643 nm.

In the case of `COc1ccc(/C=C/c2nc3nc(-c4ccc(OC)cc4)c(NC(C)(C)C)n3nc2C)cc1` [Compound 44, (E)-N-(tert-butyl)-6-(4-methoxyphenyl)-3-(4-methoxystyryl)-2-methylimidazo[1,2-b][1,2,4]triazin-7-amine], the λex (measurements run with methanol) is reported as 486 nm, the “Quantum Yield” value [1] is reported as 0.27 and the λem [2] is reported as 643 nm.

With `Cc1nn2c(NC(C)(C)C)c(-c3ccc([N+](=O)[O-])cc3)nc2nc1/C=C/c1ccc([N+](=O)[O-])cc1` [Compound 45, (E)-N-(tert-butyl)-2-methyl-6-(4-nitrophenyl)-3-(4-nitrostyryl)imidazo[1,2-b][1,2,4]triazin-7-amine] the λex (measurements run with methanol) was 505 nm, the “Quantum Yield” value [1] was 0.11 and the λem [2] was 655 nm.

In the case of `COc1cc(/C=C/c2nc3nc(-c4cc(OC)cc(OC)c4)c(NC(C)(C)C)n3nc2C)cc(OC)c1` [Compound 46, (E)-N-(tert-butyl)-6-(3,5-dimethoxyphenyl)-3-(3,5-dimethoxystyryl)-2-methylimidazo[1,2-b][1,2,4]triazin-7-amine], the λex (measurements run with methanol) is reported as 461 nm, the “Quantum Yield” value [1] is reported as 0.19 and the λem [2] is reported as 638 nm.

In the case of `Cc1nn2c(NC(C)(C)C)c(-c3cccs3)nc2nc1/C=C/c1cccs1` [Compound 47, (E)-N-(tert-butyl)-2-methyl-6-(thiophen-2-yl)-3-(2-(thiophen-2-yl)vinyl)imidazo[1,2-b][1,2,4]triazin-7-amine], the λex (measurements run with methanol) is reported as 513 nm, the “Quantum Yield” value [1] is reported as 0.33 and the λem [2] is reported as 647 nm.

With `COc1cc(/C=C/c2nc3nc(-c4cc(OC)c(OC)c(OC)c4)c(NC(C)(C)C)n3nc2C)cc(OC)c1OC` [Compound 48, (E)-N-(tert-butyl)-2-methyl-6-(3,4,5-trimethoxyphenyl)-3-(3,4,5-trimethoxystyryl)imidazo[1,2-b][1,2,4]triazin-7-amine] the λex (measurements run with methanol) was 506 nm, the “Quantum Yield” value [1] was 0.28 and the λem [2] was 633 nm.

For `CCN(CC)c1ccc(/C=C/c2nc3nc(-c4ccc(N(CC)CC)cc4)c(NC(C)(C)C)n3nc2C)cc1` [Compound 49, (E)-N-(tert-butyl)-6-(4-(diethylamino)phenyl)-3-(4-(diethylamino)styryl)-2-methylimidazo[1,2-b][1,2,4]triazin-7-amine], the λex (measurements run with methanol) was 566 nm, the “Quantum Yield” value [1] was 0.45 and the λem [2] was 653 nm.

For `Cc1nn2c(/N=C/c3ccccc3)c(-c3ccccc3)nc2nc1/C=C/c1ccccc1` [Compound 58, (E)-N-(2-methyl-6-phenyl-3-((E)-styryl)imidazo[1,2-b][1,2,4]triazin-7-yl)-1-phenylmethanimine], the λex (measurements run with methanol) was 510 nm, the “Quantum Yield” value [1] was 0.04 and the λem [2] was 601 nm.

With `Cc1nn2c(/N=C/c3ccc4ccccc4c3)c(-c3ccc4ccccc4c3)nc2nc1/C=C/c1ccc2ccccc2c1` [Compound 59, (E)-N-(2-methyl-6-(naphthalen-2-yl)-3-((E)-2-(naphthalen-2-yl)vinyl)imidazo[1,2-b][1,2,4]triazin-7-yl)-1-(naphthalen-2-yl)methanimine] the λex (measurements run with methanol) was 526 nm, the “Quantum Yield” value [1] was 0.04 and the λem [2] was 601 nm.

For `COc1ccc(/C=C/c2nc3nc(-c4ccc(OC)cc4)c(/N=C/c4ccc(OC)cc4)n3nc2C)cc1` [Compound 60, (E)-1-(4-methoxyphenyl)-N-(6-(4-methoxyphenyl)-3-((E)-4-methoxystyryl)-2-methylimidazo[1,2-b][1,2,4]triazin-7-yl)methanimine], the λex (measurements run with methanol) was 563 nm, the “Quantum Yield” value [1] was 0.19 and the λem [2] was 609 nm.

With `COc1cc(/C=C/c2nc3nc(-c4cc(OC)cc(OC)c4)c(/N=C/c4cc(OC)cc(OC)c4)n3nc2C)cc(OC)c1` [Compound 62, (E)-1-(3,5-dimethoxyphenyl)-N-(6-(3,5-dimethoxyphenyl)-3-((E)-3,5-dimethoxystyryl)-2-methylimidazo[1,2-b][1,2,4]triazin-7-yl)methanimine] the λex (measurements run with methanol) was 506 nm, the “Quantum Yield” value [1] was 0.10 and the λem [2] was 589 nm.

In the case of `Cc1nn2c(/N=C/c3cccs3)c(-c3cccs3)nc2nc1/C=C/c1cccs1` [Compound 63, (E)-N-(2-methyl-6-(thiophen-2-yl)-3-((E)-2-(thiophen-2-yl)vinyl)imidazo[1,2-b][1,2,4]triazin-7-yl)-1-(thiophen-2-yl)methanimine], the λex (measurements run with methanol) is reported as 572 nm, the “Quantum Yield” value [1] is reported as 0.19 and the λem [2] is reported as 615 nm.

With `COc1cc(/C=C/c2nc3nc(-c4cc(OC)c(OC)c(OC)c4)c(/N=C/c4cc(OC)c(OC)c(OC)c4)n3nc2C)cc(OC)c1OC` [Compound 64, (E)-N-(2-methyl-6-(3,4,5-trimethoxyphenyl)-3-((E)-3,4,5-trimethoxystyryl)imidazo[1,2-b][1,2,4]triazin-7-yl)-1-(3,4,5-trimethoxyphenyl)methanimine] the λex (measurements run with methanol) was 533 nm, the “Quantum Yield” value [1] was 0.10 and the λem [2] was 611 nm.

With `Cc1nn2c(NCc3ccccc3)c(-c3ccccc3)nc2nc1/C=C/c1ccccc1` [Compound 74, (E)-N-benzyl-2-methyl-6-phenyl-3-styrylimidazo[1,2-b][1,2,4]triazin-7-amine] the λex (measurements run with methanol) was 498 nm, the “Quantum Yield” value [1] was 0.24 and the λem [2] was 636 nm.

In the case of `Cc1nn2c(NCc3ccccc3)c(-c3ccc4ccccc4c3)nc2nc1/C=C/c1ccc2ccccc2c1` [Compound 75, (E)-N-benzyl-2-methyl-6-(naphthalen-2-yl)-3-(2-(naphthalen-2-yl)vinyl)imidazo[1,2-b][1,2,4]triazin-7-amine], the λex (measurements run with methanol) is reported as 529 nm, the “Quantum Yield” value [1] is reported as 0.34 and the λem [2] is reported as 646 nm.

For `COc1ccc(/C=C/c2nc3nc(-c4ccc(OC)cc4)c(NCc4ccccc4)n3nc2C)cc1` [Compound 76, (E)-N-benzyl-6-(4-methoxyphenyl)-3-(4-methoxystyryl)-2-methylimidazo[1,2-b][1,2,4]triazin-7-amine], the λex (measurements run with methanol) was 499 nm, the “Quantum Yield” value [1] was 0.24 and the λem [2] was 639 nm.

With `Cc1cc(C)cc(-c2nc3ccccn3c2N)c1` [Compound 101, 2-(3,5-dimethylphenyl)imidazo[1,2-a]pyridin-3-amine] the λex (measurements run with methanol) was 343 nm, the “Quantum Yield” value [1] was 0.28 and the λem [2] was 474 nm.

In the case of `COc1cc(OC)cc(-c2nc3cccnn3c2N)c1` [Compound lot, 2-(3,5-dimethoxyphenyl)imidazo[1,2-b]pyridazin-3-amine], the λex (measurements run with methanol) is reported as 407 nm, the “Quantum Yield” value [1] is reported as 0.02 and the λem [2] is reported as 546 nm.
